{"source": "PubChem BioAssay AID1259407", "about": "(Chemical Carcinogenesis Research Information System (CCRIS), 2018)", "system": "CCRIS mutagenicity, Ames/micronucleus/aberration tests", "experiment": "CCRIS mutagenicity studies", "key": {"[1]": {"details": "Test System: AMES SALMONELLA TYPHIMURIUM, Strain/Indicator: TA97, Metabolic Activation: NONE, Method: PREINCUBATION"}, "[2]": {"details": "Test System: AMES SALMONELLA TYPHIMURIUM, Strain/Indicator: TA98, Metabolic Activation: NONE, Method: PREINCUBATION"}, "[3]": {"details": "Test System: AMES SALMONELLA TYPHIMURIUM, Strain/Indicator: TA100, Metabolic Activation: NONE, Method: PREINCUBATION"}}, "note": "Active and inactive are the calls of the source. How the calls were made is not given here."}
{"molecule": "C/C=C/c1ccc(O)c(OC)c1", "values": [{"measurement": "mutagenic call", "setting": "End Point: E. coli, Test System: WP2uvrA/pKM101, Metabolic Activation: None, Method: Preincubation", "result": "inactive; negative"}, {"measurement": "mutagenic call", "setting": "End Point: E. coli, Test System: WP2uvrA/pKM101, Metabolic Activation: Rat, Liver, S-9, Aroclor 1254 (10%), Method: Preincubation", "result": "inactive; negative"}, {"measurement": "mutagenic call", "setting": "End Point: In vitro chromosomal aberrations, Test System: Chinese hamster ovary (CHO) cells, Metabolic Activation: None", "result": "inactive; negative"}, {"measurement": "mutagenic call", "setting": "End Point: In vitro chromosomal aberrations, Test System: Chinese hamster ovary (CHO) cells, Metabolic Activation: Rat, Liver, S-9, Aroclor 1254", "result": "inactive; negative"}, {"measurement": "mutagenic call", "setting": "End Point: In vivo micronucleus, Test System: Micronucleated normochromatic erythrocytes in perripheral blood, Species: Mouse, Strain/Sex: B6C3F1 / Female, Route: Oral", "result": "active; positive"}, {"measurement": "mutagenic call", "setting": "End Point: In vivo micronucleus, Test System: Micronucleated normochromatic erythrocytes in perripheral blood, Species: Mouse, Strain/Sex: B6C3F1 / Male, Route: Oral", "result": "inactive; negative"}, {"measurement": "mutagenic call", "setting": "[1]", "result": "inactive; negative"}, {"measurement": "mutagenic call", "setting": "Test System: AMES SALMONELLA TYPHIMURIUM, Strain/Indicator: TA97, Metabolic Activation: RAT, LIVER, S-9, AROCLOR 1254, Method: PREINCUBATION", "result": "inactive; negative"}, {"measurement": "mutagenic call", "setting": "Test System: AMES SALMONELLA TYPHIMURIUM, Strain/Indicator: TA98, Metabolic Activation: HAMSTER, LIVER, S-9, AROCLOR 1254, Method: STANDARD PLATE", "result": "inactive; negative"}, {"measurement": "mutagenic call", "setting": "Test System: AMES SALMONELLA TYPHIMURIUM, Strain/Indicator: TA98, Metabolic Activation: NONE, Method: STANDARD PLATE", "result": "inactive; negative"}, {"measurement": "mutagenic call", "setting": "Test System: AMES SALMONELLA TYPHIMURIUM, Strain/Indicator: TA98, Metabolic Activation: RAT, LIVER, S-9, AROCLOR 1254, Method: STANDARD PLATE", "result": "inactive; negative"}, {"measurement": "mutagenic call", "setting": "Test System: AMES SALMONELLA TYPHIMURIUM, Strain/Indicator: TA100, Metabolic Activation: HAMSTER, LIVER, S-9, AROCLOR 1254, Method: STANDARD PLATE", "result": "inactive; negative"}, {"measurement": "mutagenic call", "setting": "Test System: AMES SALMONELLA TYPHIMURIUM, Strain/Indicator: TA100, Metabolic Activation: NONE, Method: STANDARD PLATE", "result": "inactive; negative"}, {"measurement": "mutagenic call", "setting": "Test System: AMES SALMONELLA TYPHIMURIUM, Strain/Indicator: TA100, Metabolic Activation: RAT, LIVER, S-9, AROCLOR 1254, Method: STANDARD PLATE", "result": "inactive; negative"}, {"measurement": "mutagenic call", "setting": "Test System: AMES SALMONELLA TYPHIMURIUM, Strain/Indicator: TA102, Metabolic Activation: NONE, Method: PREINCUBATION", "result": "inactive; negative"}, {"measurement": "mutagenic call", "setting": "Test System: AMES SALMONELLA TYPHIMURIUM, Strain/Indicator: TA102, Metabolic Activation: RAT, LIVER, S-9, AROCLOR 1254, Method: PREINCUBATION", "result": "inactive; negative"}, {"measurement": "mutagenic call", "setting": "Test System: AMES SALMONELLA TYPHIMURIUM, Strain/Indicator: TA1535, Metabolic Activation: HAMSTER, LIVER, S-9, AROCLOR 1254, Method: STANDARD PLATE", "result": "inactive; negative"}, {"measurement": "mutagenic call", "setting": "Test System: AMES SALMONELLA TYPHIMURIUM, Strain/Indicator: TA1535, Metabolic Activation: NONE, Method: STANDARD PLATE", "result": "inactive; negative"}, {"measurement": "mutagenic call", "setting": "Test System: AMES SALMONELLA TYPHIMURIUM, Strain/Indicator: TA1535, Metabolic Activation: RAT, LIVER, S-9, AROCLOR 1254, Method: STANDARD PLATE", "result": "inactive; negative"}, {"measurement": "mutagenic call", "setting": "Test System: AMES SALMONELLA TYPHIMURIUM, Strain/Indicator: TA1537, Metabolic Activation: HAMSTER, LIVER, S-9, AROCLOR 1254, Method: STANDARD PLATE", "result": "inactive; negative"}, {"measurement": "mutagenic call", "setting": "Test System: AMES SALMONELLA TYPHIMURIUM, Strain/Indicator: TA1537, Metabolic Activation: NONE, Method: STANDARD PLATE", "result": "inactive; negative"}, {"measurement": "mutagenic call", "setting": "Test System: AMES SALMONELLA TYPHIMURIUM, Strain/Indicator: TA1537, Metabolic Activation: RAT, LIVER, S-9, AROCLOR 1254, Method: STANDARD PLATE", "result": "inactive; negative"}, {"measurement": "mutagenic call", "setting": "Test System: AMES SALMONELLA TYPHIMURIUM, Strain/Indicator: TA1538, Metabolic Activation: HAMSTER, LIVER, S-9, AROCLOR 1254, Method: STANDARD PLATE", "result": "inactive; negative"}, {"measurement": "mutagenic call", "setting": "Test System: AMES SALMONELLA TYPHIMURIUM, Strain/Indicator: TA1538, Metabolic Activation: NONE, Method: STANDARD PLATE", "result": "inactive; negative"}, {"measurement": "mutagenic call", "setting": "Test System: AMES SALMONELLA TYPHIMURIUM, Strain/Indicator: TA1538, Metabolic Activation: RAT, LIVER, S-9, AROCLOR 1254, Method: STANDARD PLATE", "result": "inactive; negative"}, {"measurement": "mutagenic call", "setting": "Test System: MOUSE LYMPHOMA, Strain/Indicator: L5178Y (TK+/TK-), Metabolic Activation: NONE, Method: SUSPENSION/PLATE", "result": "active; positive. reevaluation of results: positive"}, {"measurement": "mutagenic call", "setting": "Test System: MOUSE LYMPHOMA, Strain/Indicator: L5178Y (TK+/TK-), Metabolic Activation: RAT, LIVER, S-9, AROCLOR 1254, Method: SUSPENSION/PLATE", "result": "inactive; negative. reevaluation of results: negative"}]}
{"molecule": "c1cnc2c(c1)ccc1ncccc12", "values": [{"measurement": "mutagenic call", "setting": "Test System: AMES SALMONELLA TYPHIMURIUM, Strain/Indicator: TA100, Metabolic Activation: RAT, LIVER, S-9, PHENOBARBITAL AND 5,6-BENZOFLAVONE, Method: PREINCUBATION", "result": "active; positive"}]}
{"molecule": "c1ccc(CSCc2ccccc2)cc1", "values": [{"measurement": "mutagenic call", "setting": "Test System: AMES SALMONELLA TYPHIMURIUM, Strain/Indicator: TA97, Metabolic Activation: HAMSTER, LIVER, S-9, AROCLOR 1254 (10%), Method: PREINCUBATION", "result": "inactive; negative"}, {"measurement": "mutagenic call", "setting": "Test System: AMES SALMONELLA TYPHIMURIUM, Strain/Indicator: TA97, Metabolic Activation: HAMSTER, LIVER, S-9, AROCLOR 1254 (30%), Method: PREINCUBATION", "result": "inactive; negative"}, {"measurement": "mutagenic call", "setting": "[1]", "result": "inactive; negative"}, {"measurement": "mutagenic call", "setting": "Test System: AMES SALMONELLA TYPHIMURIUM, Strain/Indicator: TA97, Metabolic Activation: RAT, LIVER, S-9, AROCLOR 1254 (10%), Method: PREINCUBATION", "result": "inactive; negative"}, {"measurement": "mutagenic call", "setting": "Test System: AMES SALMONELLA TYPHIMURIUM, Strain/Indicator: TA97, Metabolic Activation: RAT, LIVER, S-9, AROCLOR 1254 (30%), Method: PREINCUBATION", "result": "inactive; negative"}, {"measurement": "mutagenic call", "setting": "Test System: AMES SALMONELLA TYPHIMURIUM, Strain/Indicator: TA98, Metabolic Activation: HAMSTER, LIVER, S-9, AROCLOR 1254 (10%), Method: PREINCUBATION", "result": "inactive; negative"}, {"measurement": "mutagenic call", "setting": "Test System: AMES SALMONELLA TYPHIMURIUM, Strain/Indicator: TA98, Metabolic Activation: HAMSTER, LIVER, S-9, AROCLOR 1254 (30%), Method: PREINCUBATION", "result": "inactive; negative"}, {"measurement": "mutagenic call", "setting": "[2]", "result": "inactive; negative"}, {"measurement": "mutagenic call", "setting": "Test System: AMES SALMONELLA TYPHIMURIUM, Strain/Indicator: TA98, Metabolic Activation: RAT, LIVER, S-9, AROCLOR 1254 (10%), Method: PREINCUBATION", "result": "inactive; negative"}, {"measurement": "mutagenic call", "setting": "Test System: AMES SALMONELLA TYPHIMURIUM, Strain/Indicator: TA98, Metabolic Activation: RAT, LIVER, S-9, AROCLOR 1254 (30%), Method: PREINCUBATION", "result": "inactive; negative"}, {"measurement": "mutagenic call", "setting": "Test System: AMES SALMONELLA TYPHIMURIUM, Strain/Indicator: TA100, Metabolic Activation: HAMSTER, LIVER, S-9, AROCLOR 1254 (10%), Method: PREINCUBATION", "result": "inactive; negative"}, {"measurement": "mutagenic call", "setting": "Test System: AMES SALMONELLA TYPHIMURIUM, Strain/Indicator: TA100, Metabolic Activation: HAMSTER, LIVER, S-9, AROCLOR 1254 (30%), Method: PREINCUBATION", "result": "inactive; negative"}, {"measurement": "mutagenic call", "setting": "[3]", "result": "inactive; negative"}, {"measurement": "mutagenic call", "setting": "Test System: AMES SALMONELLA TYPHIMURIUM, Strain/Indicator: TA100, Metabolic Activation: RAT, LIVER, S-9, AROCLOR 1254 (10%), Method: PREINCUBATION", "result": "inactive; negative"}, {"measurement": "mutagenic call", "setting": "Test System: AMES SALMONELLA TYPHIMURIUM, Strain/Indicator: TA100, Metabolic Activation: RAT, LIVER, S-9, AROCLOR 1254 (30%), Method: PREINCUBATION", "result": "inactive; negative"}, {"measurement": "mutagenic call", "setting": "Test System: AMES SALMONELLA TYPHIMURIUM, Strain/Indicator: TA1535, Metabolic Activation: HAMSTER, LIVER, S-9, AROCLOR 1254 (10%), Method: PREINCUBATION", "result": "inactive; negative"}, {"measurement": "mutagenic call", "setting": "Test System: AMES SALMONELLA TYPHIMURIUM, Strain/Indicator: TA1535, Metabolic Activation: HAMSTER, LIVER, S-9, AROCLOR 1254 (30%), Method: PREINCUBATION", "result": "inactive; negative"}, {"measurement": "mutagenic call", "setting": "Test System: AMES SALMONELLA TYPHIMURIUM, Strain/Indicator: TA1535, Metabolic Activation: NONE, Method: PREINCUBATION", "result": "inactive; negative"}, {"measurement": "mutagenic call", "setting": "Test System: AMES SALMONELLA TYPHIMURIUM, Strain/Indicator: TA1535, Metabolic Activation: RAT, LIVER, S-9, AROCLOR 1254 (10%), Method: PREINCUBATION", "result": "inactive; negative"}, {"measurement": "mutagenic call", "setting": "Test System: AMES SALMONELLA TYPHIMURIUM, Strain/Indicator: TA1535, Metabolic Activation: RAT, LIVER, S-9, AROCLOR 1254 (30%), Method: PREINCUBATION", "result": "inactive; negative"}]}
{"molecule": "OC[C@@H](O)CCl", "values": [{"measurement": "mutagenic call", "setting": "[2]", "result": "inactive; negative"}, {"measurement": "mutagenic call", "setting": "Test System: AMES SALMONELLA TYPHIMURIUM, Strain/Indicator: TA98, Metabolic Activation: RAT, LIVER, S-9, KANECHLOR 500, Method: PREINCUBATION", "result": "inactive; negative"}, {"measurement": "mutagenic call", "setting": "[3]", "result": "active; positive"}, {"measurement": "mutagenic call", "setting": "Test System: AMES SALMONELLA TYPHIMURIUM, Strain/Indicator: TA100, Metabolic Activation: RAT, LIVER, S-9, KANECHLOR 500, Method: PREINCUBATION", "result": "inactive; negative"}, {"measurement": "mutagenic call", "setting": "Test System: AMES SALMONELLA TYPHIMURIUM, Strain/Indicator: TA100, Metabolic Activation: RAT, LIVER, S-9, PCB, Method: PREINCUBATION", "result": "active; positive"}]}
